From publication PMC12736255, “Reinvestigating Pyrrol-2-One-Based Compounds: From Antimicrobial Agents to Promising Antitumor Candidates” (Pharmaceuticals, 2025)

What was measured:
U-118MG = assay: CellTiter-Glo 2.0 cytotoxicity, glioblastoma; format: cell-based, human; settings: 50 µM, 24 h
Description: Cytotoxicity of compounds was assessed using the CellTiter-Glo® 2.0 Assay (Promega, Madison, WI, USA) on human gingival fibroblasts (HGF), osteosarcoma (HOS and MG-63) and glioblastoma (LN-229 and U-118MG) cells, according to the manufacturer’s instructions. HGF, HOS, MG-63 and U-118MG cells were purchased from Cytion GmbH, Eppelheim, Germany, and LN-229 (CRL-2611) from the American Type Culture Collection (ATCC), Manassas, VA, USA. Cells were seeded (50,000 cells/mL—HGF, 100,000 cells/mL—tumor cells) into 96-well opaque white tissue culture-treated plates and allowed to adhere overnight in αMEM medium with 10% fetal bovine serum and 1% antibiotic-antimycotic (all from PAN—Biotech GmbH, Aidenbach, Germany). Cells were incubated with compounds (10 or 50 µM) for 24 h, then CellTiter-Glo® reagent was added and luminescence was recorded using a FLUOstar® Omega microplate reader (BMG LABTECH, Ortenberg, Germany). The experiments were carried out in triplicate, and the viability of treated cells was expressed as a percentage of the viability of control cells (untreated). Data were represented as means ± standard deviations. Stock solutions of compounds were prepared in DMSO, then diluted in complete cell culture media. […] Data were analyzed with independent two-tailed (Student’s) t-test, considering p < 0.05 statistically significant.

M14 = assay: NCI-60 5-dose screen; format: cell-based, human
HS 578T = assay: NCI-60 5-dose screen; format: cell-based, human
HCT-116 = assay: NCI-60 5-dose screen; format: cell-based, human
COLO 205 = assay: NCI-60 5-dose screen; format: cell-based, human
RXF 393 = assay: NCI-60 5-dose screen; format: cell-based, human
A549/ATCC = assay: NCI-60 5-dose screen; format: cell-based, human
SK-OV-3 = assay: NCI-60 5-dose screen; format: cell-based, human
U251 = assay: NCI-60 5-dose screen; format: cell-based, human
BT-549 = assay: NCI-60 5-dose screen; format: cell-based, human
SF-268 = assay: NCI-60 5-dose screen; format: cell-based, human
HL-60(TB) = assay: NCI-60 5-dose screen; format: cell-based, human
MDA-MB-231/ATCC = assay: NCI-60 5-dose screen; format: cell-based, human
CAKI-1 = assay: NCI-60 5-dose screen; format: cell-based, human
MOLT-4 = assay: NCI-60 5-dose screen; format: cell-based, human
HT29 = assay: NCI-60 5-dose screen; format: cell-based, human
CCRF-CEM = assay: NCI-60 5-dose screen; format: cell-based; settings: Homo sapiens
MDA-MB-468 = assay: NCI-60 5-dose screen; format: cell-based, human
MALME-3M = assay: NCI-60 5-dose screen; format: cell-based, human
IGROV1 = assay: NCI-60 5-dose screen; format: cell-based, human
SW-620 = assay: NCI-60 5-dose screen; format: cell-based, human
OVCAR-3 = assay: NCI-60 5-dose screen; format: cell-based, human
SNB-75 = assay: NCI-60 5-dose screen; format: cell-based, human
LOX IMVI = assay: NCI-60 5-dose screen; format: cell-based, human
ACHN = assay: NCI-60 5-dose screen; format: cell-based, human
HOP-62 = assay: NCI-60 5-dose screen; format: cell-based, human
OVCAR-4 = assay: NCI-60 5-dose screen; format: cell-based, human
SR = assay: NCI-60 5-dose screen; format: cell-based, human
[1] = Homo sapiens, read-out: LC50 (the source's name)

Q: With `COc1cc(OC)c(C2C=C(Nc3ccc(I)cc3)C(=O)N2c2ccc(I)cc2)cc1OC` (stereo not shown) [3k] as the compound, how does the “cytotoxicity (activity in words)” value (U-118MG) read?
A: moderate activity

Q: `N#Cc1ccc(C2C=C(Nc3ccc(I)cc3)C(=O)N2c2ccc(I)cc2)cc1` (stereo not shown) [3l] was tested. Which TGI (M14) did it give?
A: >100 µM

Q: What about the GI50 (M14; Homo sapiens) of the same compound?
A: 7.24 µM

Q: What about the CC50 (M14; [1]) of the same compound?
A: > 100 µM

Q: What about the TGI (HS 578T) of the same compound?
A: 5.64 µM

Q: And the GI50 (HS 578T; Homo sapiens)?
A: 2.1 µM

Q: And the CC50 (HS 578T; [1])?
A: > 100 µM

Q: What about the TGI (HCT-116) of the same compound?
A: >100 µM

Q: And the GI50 (HCT-116; Homo sapiens)?
A: 3.83 µM

Q: What about the CC50 (HCT-116; [1]) of the same compound?
A: > 100 µM

Q: And the TGI (COLO 205)?
A: >100 µM

Q: And the GI50 (COLO 205; Homo sapiens)?
A: 5.29 µM

Q: And the CC50 (COLO 205; [1])?
A: > 100 µM

Q: What about the TGI (RXF 393) of the same compound?
A: >100 µM

Q: And the GI50 (RXF 393; Homo sapiens)?
A: 3.72 µM

Q: And the CC50 (RXF 393; [1])?
A: > 100 µM

Q: What about the TGI (A549/ATCC) of the same compound?
A: >100 µM

Q: What about the GI50 (A549/ATCC; Homo sapiens) of the same compound?
A: 8.08 µM

Q: What about the CC50 (A549/ATCC; [1]) of the same compound?
A: > 100 µM

Q: What about the TGI (SK-OV-3) of the same compound?
A: >100 µM

Q: And the GI50 (SK-OV-3; Homo sapiens)?
A: 6.41 µM

Q: And the CC50 (SK-OV-3; [1])?
A: > 100 µM

Q: And the TGI (U251)?
A: >100 µM

Q: And the GI50 (U251; Homo sapiens, U-251)?
A: 4.17 µM

Q: And the LC50 (50% lethal concentration) (U251; Homo sapiens, U-251)?
A: > 100 µM

Q: And the TGI (BT-549)?
A: >100 µM

Q: And the GI50 (BT-549; Homo sapiens)?
A: 5.81 µM

Q: What about the CC50 (BT-549; [1]) of the same compound?
A: > 100 µM

Q: And the TGI (SF-268)?
A: >100 µM

Q: And the GI50 (SF-268; Homo sapiens)?
A: 4.69 µM

Q: What about the CC50 (SF-268; [1]) of the same compound?
A: > 100 µM

Q: And the TGI (HL-60(TB))?
A: >100 µM

Q: And the GI50 (HL-60(TB); Homo sapiens)?
A: > 100 µM

Q: What about the CC50 (HL-60(TB); [1]) of the same compound?
A: > 100 µM

Q: What about the TGI (MDA-MB-231/ATCC) of the same compound?
A: 9.63 µM

Q: What about the GI50 (MDA-MB-231/ATCC; Homo sapiens) of the same compound?
A: 2.5 µM

Q: And the CC50 (MDA-MB-231/ATCC; [1])?
A: > 100 µM

Q: What about the TGI (CAKI-1) of the same compound?
A: >100 µM

Q: And the GI50 (CAKI-1; Homo sapiens)?
A: 9.48 µM

Q: What about the CC50 (CAKI-1; [1]) of the same compound?
A: > 100 µM

Q: And the TGI (MOLT-4)?
A: >100 µM

Q: What about the GI50 (MOLT-4; Homo sapiens) of the same compound?
A: 2.11 µM

Q: What about the CC50 (MOLT-4; [1]) of the same compound?
A: > 100 µM

Q: And the TGI (HT29)?
A: >100 µM

Q: What about the GI50 (HT29; Homo sapiens, HT-29) of the same compound?
A: 9.43 µM

Q: What about the CC50 (HT29; Homo sapiens, HT-29, read-out: LC50 (the source's name)) of the same compound?
A: > 100 µM

Q: What about the GI50 (CCRF-CEM) of the same compound?
A: 3.26 µM

Q: And the CC50 (CCRF-CEM; read-out: LC50 (the source's name))?
A: > 100 µM

Q: What about the TGI (MDA-MB-468) of the same compound?
A: >100 µM

Q: What about the GI50 (MDA-MB-468; Homo sapiens) of the same compound?
A: 2.7 µM

Q: And the CC50 (MDA-MB-468; [1])?
A: > 100 µM

Q: What about the GI50 (MALME-3M; Homo sapiens, Malme-3M) of the same compound?
A: 2.07 µM

Q: And the CC50 (MALME-3M; Homo sapiens, Malme-3M, read-out: LC50 (the source's name))?
A: > 100 µM

Q: What about the TGI (MALME-3M; MALME-3M) of the same compound?
A: >100 µM

Q: And the TGI (IGROV1)?
A: >100 µM

Q: What about the GI50 (IGROV1; Homo sapiens, IGROV-1) of the same compound?
A: 8.67 µM

Q: And the CC50 (IGROV1; Homo sapiens, IGROV-1, read-out: LC50 (the source's name))?
A: > 100 µM

Q: And the TGI (SW-620)?
A: >100 µM

Q: What about the GI50 (SW-620; Homo sapiens) of the same compound?
A: 5.91 µM

Q: And the CC50 (SW-620; [1])?
A: > 100 µM

Q: And the TGI (OVCAR-3)?
A: >100 µM

Q: And the GI50 (OVCAR-3; Homo sapiens)?
A: 4.72 µM

Q: And the CC50 (OVCAR-3; [1])?
A: > 100 µM

Q: And the “cytotoxicity (activity in words)” value (U-118MG)?
A: moderate activity

Q: And the TGI (SNB-75)?
A: 3.42 µM

Q: And the GI50 (SNB-75; Homo sapiens)?
A: 1.34 µM

Q: And the CC50 (SNB-75; [1])?
A: 8.76 µM

Q: And the TGI (LOX IMVI)?
A: >100 µM

Q: And the GI50 (LOX IMVI; Homo sapiens)?
A: 3.38 µM

Q: And the CC50 (LOX IMVI; [1])?
A: > 100 µM

Q: What about the TGI (ACHN) of the same compound?
A: >100 µM

Q: And the GI50 (ACHN; Homo sapiens)?
A: 5.36 µM

Q: And the CC50 (ACHN; [1])?
A: > 100 µM

Q: And the TGI (HOP-62)?
A: >100 µM

Q: What about the GI50 (HOP-62; Homo sapiens) of the same compound?
A: 5.21 µM

Q: And the CC50 (HOP-62; [1])?
A: > 100 µM

Q: And the TGI (OVCAR-4)?
A: 1.69 µM

Q: And the GI50 (OVCAR-4; Homo sapiens)?
A: 0.422 µM

Q: And the CC50 (OVCAR-4; [1])?
A: 4.82 µM

Q: What about the TGI (SR) of the same compound?
A: >100 µM

Q: And the GI50 (SR; Homo sapiens)?
A: 6.28 µM

Q: What about the CC50 (SR; [1]) of the same compound?
A: > 100 µM
